According to patent US8883809B2, “Isoxazole/isoxazoline/combretastatin linked dihydroquinazolinone hybrids as potential anticancer agents and process for the preparation thereof” (Council of Scientific & Industrial Research, priority 2008, dated 2014):
Read-outs that look alike come from different tables or passages of the source.

Legend:
[1] = tested on: HL-60(TB); experiment: NCI in vitro cytotoxicity, SRB assay; assay type: cell-based; conditions: Homo sapiens; Leukemia HL-60(TB)
[2] = tested on: CCRF-CEM; experiment: NCI in vitro cytotoxicity, SRB assay; conditions: Homo sapiens
[3] = tested on: K-562; experiment: NCI in vitro cytotoxicity, SRB assay; conditions: Homo sapiens, K562
[4] = tested on: MOLT-4; experiment: NCI in vitro cytotoxicity, SRB assay; conditions: Homo sapiens
[5] = tested on: RPMI-8226; experiment: NCI in vitro cytotoxicity, SRB assay; conditions: Homo sapiens
[6] = tested on: A549/ATCC; experiment: NCI in vitro cytotoxicity, SRB assay; conditions: Homo sapiens
[7] = tested on: EKVX; experiment: NCI in vitro cytotoxicity, SRB assay; conditions: Homo sapiens
[8] = tested on: HOP-92; experiment: NCI in vitro cytotoxicity, SRB assay; conditions: Homo sapiens
Text: (§1) The results are expressed as percent of cell growth determined relative to that of untreated control cells (Table 2).

[9] = tested on: NCI-H23; experiment: NCI in vitro cytotoxicity, SRB assay; conditions: Homo sapiens
Text: as §1

[10] = tested on: NCI-H460; experiment: NCI in vitro cytotoxicity, SRB assay; conditions: Homo sapiens
Text: as §1

[11] = tested on: NCI-H522; experiment: NCI in vitro cytotoxicity, SRB assay; conditions: Homo sapiens
Text: as §1

[12] = tested on: HCC-2998; experiment: NCI in vitro cytotoxicity, SRB assay; conditions: Homo sapiens
Text: as §1

[13] = tested on: HCT-116; experiment: NCI in vitro cytotoxicity, SRB assay; conditions: Homo sapiens
[14] = tested on: HCT-15; experiment: NCI in vitro cytotoxicity, SRB assay; conditions: Homo sapiens
[15] = tested on: KM12; experiment: NCI in vitro cytotoxicity, SRB assay; conditions: Homo sapiens
[16] = tested on: SW-620; experiment: NCI in vitro cytotoxicity, SRB assay; conditions: Homo sapiens
[17] = tested on: SF-268; experiment: NCI in vitro cytotoxicity, SRB assay; conditions: Homo sapiens
[18] = tested on: SF-295; experiment: NCI in vitro cytotoxicity, SRB assay; conditions: Homo sapiens
[19] = tested on: SF-539; experiment: NCI in vitro cytotoxicity, SRB assay; conditions: Homo sapiens
[20] = tested on: SNB-19; experiment: NCI in vitro cytotoxicity, SRB assay; conditions: Homo sapiens
[21] = tested on: SNB-75; experiment: NCI in vitro cytotoxicity, SRB assay; conditions: Homo sapiens
[22] = tested on: U251; experiment: NCI in vitro cytotoxicity, SRB assay; conditions: Homo sapiens, U-251
[23] = tested on: LOX IMVI; experiment: NCI in vitro cytotoxicity, SRB assay; conditions: Homo sapiens
[24] = tested on: M14; experiment: NCI in vitro cytotoxicity, SRB assay; conditions: Homo sapiens
[25] = tested on: IGROV1; experiment: NCI in vitro cytotoxicity, SRB assay; conditions: Homo sapiens, IGROV-1
[26] = tested on: OVCAR-3; experiment: NCI in vitro cytotoxicity, SRB assay; conditions: Homo sapiens
[27] = tested on: OVCAR-4; experiment: NCI in vitro cytotoxicity, SRB assay; conditions: Homo sapiens
[28] = tested on: OVCAR-5; experiment: NCI in vitro cytotoxicity, SRB assay; conditions: Homo sapiens
[29] = tested on: OVCAR-8; experiment: NCI in vitro cytotoxicity, SRB assay; conditions: Homo sapiens
[30] = tested on: SK-OV-3; experiment: NCI in vitro cytotoxicity, SRB assay; conditions: Homo sapiens
[31] = tested on: NCI/ADRRES; experiment: NCI in vitro cytotoxicity, SRB assay; conditions: Homo sapiens, NCI/ADR-RES
[32] = tested on: 786-0; experiment: NCI in vitro cytotoxicity, SRB assay; conditions: Homo sapiens
[33] = tested on: A498; experiment: NCI in vitro cytotoxicity, SRB assay; conditions: Homo sapiens
[34] = tested on: ACHN; experiment: NCI in vitro cytotoxicity, SRB assay; conditions: Homo sapiens
[35] = tested on: CAKI-1; experiment: NCI in vitro cytotoxicity, SRB assay; conditions: Homo sapiens
[36] = tested on: SN12C; experiment: NCI in vitro cytotoxicity, SRB assay; conditions: Homo sapiens
[37] = tested on: UO-31; experiment: NCI in vitro cytotoxicity, SRB assay; conditions: Homo sapiens
[38] = tested on: PC-3; experiment: NCI in vitro cytotoxicity, SRB assay; conditions: Homo sapiens
[39] = tested on: DU-145; experiment: NCI in vitro cytotoxicity, SRB assay; conditions: Homo sapiens
[40] = tested on: MCF7; experiment: NCI in vitro cytotoxicity, SRB assay; conditions: Homo sapiens
[41] = tested on: MDA-MB-231/ATCC; experiment: NCI in vitro cytotoxicity, SRB assay; conditions: Homo sapiens
[42] = tested on: HS 578T; experiment: NCI in vitro cytotoxicity, SRB assay; conditions: Homo sapiens
[43] = tested on: T-47D; experiment: NCI in vitro cytotoxicity, SRB assay; conditions: Homo sapiens, T47D
[44] = tested on: MDA-MB-468; experiment: NCI in vitro cytotoxicity, SRB assay; conditions: Homo sapiens
[45] = tested on: SK-MEL-28; experiment: NCI in vitro cytotoxicity, SRB assay; conditions: Homo sapiens
[46] = tested on: SK-MEL-5; experiment: NCI in vitro cytotoxicity, SRB assay; conditions: Homo sapiens
[47] = tested on: UACC-257; experiment: NCI in vitro cytotoxicity, SRB assay; conditions: Homo sapiens
[48] = tested on: UACC-62; experiment: NCI in vitro cytotoxicity, SRB assay; conditions: Homo sapiens
[49] = tested on: MDA-MB-435; experiment: NCI in vitro cytotoxicity, SRB assay; conditions: Homo sapiens
[50] = tested on: Leukemia cell lines; experiment: NCI in vitro cytotoxicity, panel average
[51] = tested on: Non-small-cell lung cancer cell lines; experiment: NCI in vitro cytotoxicity, panel average
[52] = tested on: Colon cancer cell lines; experiment: NCI in vitro cytotoxicity, panel average
[53] = tested on: CNS cancer cell lines; experiment: NCI in vitro cytotoxicity, panel average; conditions: average of the panel's cell lines
[54] = tested on: Melanoma cell lines; experiment: NCI in vitro cytotoxicity, panel average
[55] = tested on: Ovarian cancer cell lines; experiment: NCI in vitro cytotoxicity, panel average
[56] = tested on: Renal cancer cell lines; experiment: NCI in vitro cytotoxicity, panel average
[57] = tested on: Prostate cancer cell lines; experiment: NCI in vitro cytotoxicity, panel average
[58] = tested on: Breast cancer cell lines; experiment: NCI in vitro cytotoxicity, panel average
[59] = tested on: forty nine human tumour cell lines; experiment: NCI in vitro cytotoxicity screen, SRB assay, 48 h continuous exposure
[60] = Homo sapiens, read-out: Log10 LC50 (converted)

COc1cc(C2NC(=O)c3ccccc3N2)ccc1OCCCCCOc1c(OC)cc(C2=NOC(c3cc(OC)c(OC)c(OC)c3)C2)cc1OC (centres unmarked) [Compound 7d, 2-[4-(5-{2,6-Dimethoxy-4-[5-(3,4,5-trimethoxy-phenyl)-4,5-dihydro-isoxazol-3-yl]-phenoxy}-pentyloxy)-3-methoxy-phenyl]-2,3-dihydro-1H-quinazolin-4-one]
GI50 [1]: 12.2 µM
GI50 [2]: 0.62 µM
GI50 [3]: 0.37 µM
GI50 [4]: 0.68 µM
GI50 [5]: 0.06 µM
GI50 [6]: 15.7 µM
GI50 [7]: 0.36 µM
GI50 [8]: 15.8 µM
GI50 [9]: 0.38 µM
GI50 [10]: 15.1 µM
GI50 [11]: 27.4 µM
GI50 [12]: 0.06 µM
GI50 [13]: 0.26 µM
GI50 [14]: 15.9 µM
GI50 [15]: 10.4 µM
GI50 [16]: 21 µM
GI50 [17]: 20.2 µM
GI50 [18]: 16.4 µM
GI50 [19]: 21.2 µM
GI50 [20]: 16.6 µM
GI50 [21]: 34.2 µM
GI50 [22]: 25.2 µM
GI50 [23]: 19.5 µM
GI50 [24]: 19.8 µM
GI50 [25]: 0.32 µM
GI50 [26]: 12.4 µM
GI50 [27]: 0.49 µM
GI50 [28]: 31.7 µM
GI50 [29]: 25.7 µM
GI50 [30]: 38.5 µM
GI50 [31]: 10.6 µM
GI50 [32]: 31.8 µM
GI50 [33]: 19.3 µM
GI50 [34]: 0.95 µM
GI50 [35]: 18 µM
GI50 [36]: 39.1 µM
GI50 [37]: 21.4 µM
GI50 [38]: 0.74 µM
GI50 [39]: 22.4 µM
GI50 [40]: 0.45 µM
GI50 [41]: 14.7 µM
GI50 [42]: 15 µM
GI50 [43]: 0.3 µM
GI50 [44]: 0.08 µM
GI50 [45]: 3.24 µM
GI50 [46]: 0.18 µM
GI50 [47]: 0.29 µM
GI50 [48]: 0.99 µM
GI50 [49]: 0.6 µM
CC50 [50, 60]: 70.8 µM
Log10 GI50 ([50]; Leukemia, average of the panel's cell lines): −6.17 mol/L
CC50 [51, 60]: ≥ 100 µM
Log10 GI50 ([51]; Non-small-cell lung, average of the panel's cell lines): −4.97 mol/L
Log10 GI50 ([52]; Colon, average of the panel's cell lines): −5.17 mol/L
CC50 [52, 60]: ≥ 100 µM
Log10 GI50 [53]: −4.66 mol/L
CC50 [54, 60]: ≥ 100 µM
Log10 GI50 ([54]; Melanoma, average of the panel's cell lines): −5.69 mol/L
CC50 [55, 60]: ≥ 100 µM
Log10 GI50 ([55]; Ovarian, average of the panel's cell lines): −5.20 mol/L
CC50 [56, 60]: ≥ 100 µM
Log10 GI50 ([56]; Renal, average of the panel's cell lines): −4.72 mol/L
CC50 [57, 60]: ≥ 100 µM
Log10 GI50 ([57]; Prostate, average of the panel's cell lines): −5.39 mol/L
Log10 GI50 ([58]; Breast, average of the panel's cell lines): −5.82 mol/L
CC50 [58, 60]: ≥ 100 µM
GI50 ([59]; Homo sapiens, read-out: GI50 value): < 40 µM
GI50 ([59]; Homo sapiens, read-out: Log10 GI50 mean graph midpoint (MG_MID) (converted)): 5.25 µM
CC50 ([59]; Homo sapiens, read-out: Log10 LC50 mean graph midpoint (MG_MID) (converted)): 95.5 µM
in vitro cytotoxicity (in words) ([59]; cancer cell lines): significant cytotoxicity
Log10 TGI mean graph midpoint (MG_MID) ([59]; human tumour cell lines): −4.18
